In patent publication US8592438B2, “Plant disease control composition” (Sumitomo Chemical Intellectual Property Service, Ltd, priority 2008, dated 2013):

Columns and labels:
[1] = tested on: cucumber Gray mold fungus; test: Test Example 1: cucumber Gray mold control test, foliar spray on potted cucumber; assay type: in vivo; settings: spray on cucumber stems and leaves, 6 days at 12° C. humid
Method: A plastic pot was stuffed with sand loam, and cucumber was sowed, and grown for 12 days in a greenhouse. A compound (Ia), compound (Ib) and compound (II) were prepared into flowable formulations according to the following preparation method, and the resultant flowable formulations were diluted with water, then, mixed to prepare a treatment solution containing the compound (Ia) and compound (II) of prescribed concentrations, and a treatment solution containing the compound (Ib) and compound (II) of prescribed concentrations. The treatment solutions were sprayed on stems and leaves so as to fully adhere to the leaf surfaces of the cucumber. After spraying, the plant was air-dried, and a PDA medium containing spores of cucumber Gray mold fungus was placed on the cucumber leaf surface. Thereafter, it was left for 6 days at 12° C. under humid condition, then, a control effect thereof was checked.
Further, wettable powders of the compound (Ia), compound (Ib) and compound (II) each were diluted with water to prescribed concentrations to prepare respective treatment solutions, which were subjected to a parallel test.
In checking, evaluation indices described later were used. According to formula 1, the pathogenesis degree was calculated, and based on the pathogenesis degree, a controlling value (%) was calculated using formula 2.
(§1) A compound (Ia), compound (Ib) or compound (II) (10 parts), a mixture (35 parts) of white carbon and polyoxyethylene alkyl ether sulfate ammonium salt (weight ratio 1:1) and water (55 parts) were mixed, and finely ground by a wet grinding method to obtain respective flowable formulations.
• 0: disease spot diameter, 0 mm • 1: disease spot diameter, 1 to 5 mm • 2: disease spot diameter, 5 to 10 mm • 3: disease spot diameter, 10 to 15 mm • 4: disease spot diameter, 15 to 20 mm • 5: disease spot diameter, over 20 mm pathogenesis degree=Σ(evaluation index of checked leaf)×100/(5×number of checked leaves) Formula 1 controlling value (%)=100×(A−B)/A Formula 2 • A: pathogenesis degree of plant in non-treated district • B: pathogenesis degree of plant in treated district

[2] = tested on: cucumber Gray mold fungus; test: Test Example 2: cucumber Gray mold control test, foliar spray on potted cucumber, disease spot diameter indices; assay type: in vivo; settings: sum over 8 cucumber leaves, index 0 (spot 0 mm) to 5 (over 20 mm), 12° C. humid
Method: A plastic pot was stuffed with sand loam, and cucumber was sowed, and grown for 12 days in a greenhouse. A compound (Ia), compound (Ib), compound (III) and compound (IV) were prepared into flowable formulations according to the following preparation method, and the resultant flowable formulations were diluted with water, then, mixed to prepare a treatment solution containing the compound (Ia) and compound (III) of prescribed concentrations, a treatment solution containing the compound (Ib) and compound (III) of prescribed concentrations, a treatment solution containing the compound (Ia) and compound (IV) of prescribed concentrations, and a treatment solution containing the compound (Ib) and compound (IV) of prescribed concentrations. The treatment solutions were sprayed on stems and leaves so as to fully adhere to the leaf surfaces of the cucumber. After spraying, the plant was air-dried, and a PDA medium containing spores of cucumber Gray mold fungus was placed on the cucumber leaf surface. Thereafter, it was left under humid condition at 12° C., then, a control effect thereof was checked.
Further, wettable powders of the compound (Ia), compound (Ib), compound (III) and compound (IV) each were diluted with water to prescribed concentrations to prepare respective treatment solutions, which were subjected to a parallel test.
In checking of the control effect, the disease spot diameter was measured for 8 leaves of cucumber. A case of a disease spot diameter of 0 mm was evaluated as a controlling index of 0, a case of a disease spot diameter of 1 to 5 mm was evaluated as a controlling index of 1, a case of a disease spot diameter of 5 to 10 mm was evaluated as a controlling index of 2, a case of a disease spot diameter of 10 to 15 mm was evaluated as a controlling index of 3, a case of a disease spot diameter of 15 to 20 mm was evaluated as a controlling index of 4, and a case of a disease spot diameter of over 20 mm was evaluated as a controlling index of 5.
as §1, with “(Ib), compound (III)” for “(Ib)”, “(IV)” for “(II)”

[3] = active ingredient concentration 2.5 ppm
[4] = active ingredient concentration 10 ppm
[5] = active ingredient concentration 20 ppm
[6] = active ingredient concentration 5 ppm
[7] = active ingredient concentration 40 ppm

SMILES: CNC(=O)[C@H](OC)c1ccccc1COc1cc(C)ccc1C [compound (Ia)]
- controlling value [1, 3]: 48%
- controlling value [1, 4]: 60%
- controlling value [1, 5]: 68%
- sum of controlling indices [2, 3]: 27
- sum of controlling indices [2, 6]: 25
- sum of controlling indices [2, 4]: 24
- sum of controlling indices [2, 5]: 23

SMILES: CC#Cc1cc(C)nc(Nc2ccccc2)n1 [compound (III), 4-methyl-N-phenyl-6-(1-propynyl)-2-pyrimidinamine, reference compound]
- sum of controlling indices [2, 6]: 10

SMILES: CNC(=O)C(OC)c1ccccc1COc1cc(C)ccc1C (stereo not drawn) [compound (Ib)]
- controlling value [1, 6]: 48%
- controlling value [1, 5]: 60%
- controlling value [1, 7]: 68%
- sum of controlling indices [2, 6]: 25
- sum of controlling indices [2, 4]: 26
- sum of controlling indices [2, 5]: 24
- sum of controlling indices [2, 7]: 24

SMILES: Cc1cc(C)nc(Nc2ccccc2)n1 [compound (II), 4,6-dimethyl-N-phenyl-2-pyrimidinamine, reference compound]
- controlling value [1, 4]: 30%

SMILES: Cc1cc(C2CC2)nc(Nc2ccccc2)n1 [compound (IV), 4-cyclopropyl-6-methyl-N-phenyl-2-pyrimidinamine, reference compound]
- sum of controlling indices [2, 3]: 24
- sum of controlling indices [2, 6]: 9
